Results reported in patent US20220378889A1, “NEO-EPITOPE VACCINES AND METHODS OF TREATING CANCER” (Epivax Therapeutics Inc., priority 2019, published 2022).

Columns and labels:
[1] = tested on: CT26 tumor cells; test: CT26 tumor growth and survival after vaccination (Example 1); conditions: N=10 mice per group
Experimental: Mice were separated into three groups: 1) PBS control; 2) poly-ICLC (vehicle); 3) ANCER™-selected CT26 Neoantigen Peptides+poly-ICLC. • Group 1: PBS, sc injections at days 5, 8, 12, 15, 19, 22, and 26. • Group 2: poly-ICLC, 50 μg, sc injections at days 5, 8, 12, 15, 19, 22, and 26. • Group 3: 5 μg/ANCER™-selected CT26 Neoantigen Peptide (100 μg total ANCER™-selected CT26 Neoantigen Peptides)+50 μg poly-ICLC, sc injections at days 5, 8, 12, 15, 19, 22, and 26.
All mice (N=10 mice per group) were injected 3*10^5 CT26 tumor cells in 0% Matrigel at day 0. Mice were sacrificed once the tumor volume reached 2,000 mm^3 or at day 45, whichever came first.

[2] = tested on: CT26 murine colon tumor cells; test: CT26 tumor growth with or without poly-ICLC (Example 13); assay type: in vivo, BALB/c mice; conditions: day 25 post-tumor implantation; sc twice per week for three weeks from day 4
Experimental: The goal of this experiment was to determine the requirement for the inclusion of the adjuvant poly-ICLC in a peptide vaccine containing ANCER™ selected neoantigens. For this experiment, female BALB/c mice were implanted subcutaneously with 3×10^5 CT26 murine colon tumor cells. Tumor growth was monitored by caliper measurement and mice were sacrificed 45 days after tumor implantation or when tumor volumes reached 2000 mm^3, whichever came first.
Four vaccine groups were tested (n=10 mice/group):
Group 2=PBS with 50 μg poly-ICLC
Group 3=20 ANCER™ selected (uncapped) peptides with 50 μg poly-ICLC
Group 4=20 ANCER™ selected (uncapped) peptides only
Peptide vaccines were comprised of 20 different ANCER™ selected peptides at a concentration of 5 μg/peptide for a total dose of 100 μg peptide per immunization. Mice were immunized subcutaneously in the opposite flank from tumor implantation twice per week for three weeks, starting at day 4 post-tumor implantation.

Substance: poly-ICLC
- mice reaching endpoint (tumor volume of at least 2,000 mm^3) by day 28 [1]: 60%
- control of tumor growth relative to PBS / poly-ICLC alone [2]: no difference in tumor growth kinetics
